Read-outs that look alike come from different tables or passages of the source.
Tests used:
RAW 264.7 cells = assay: Cell viability (XTT method) of RAW 264.7 cells; format: cell-based; details: compound 10 μM, 24 h, means ± S.D.
Description: To evaluate whether the suppressive effect of compounds on NO production is related to cell viability, Raw 264.7 cells were treated with LPS for 24 h, and washed with 500 μL of phosphate buffer solution (PBS) before resuspended in 1 mL of culture medium. Cell viability tests were run in parallel with NO production assays with an initial cell density of 5 × 10^3 cells/well in the presence or absence of test compounds at 10 μM or 0.1% DMSO as control.

iNOS mRNA expression = assay: LPS-induced iNOS mRNA expression in RAW 264.7 cells (RT-PCR); format: cell-based; details: pretreated 2 h, LPS 0.1 μg/mL
Text: Total RNA was extracted by Trizol-Reagent (Invirogen, Carlsbad, CA, USA) according to the manufacturer’s manual. One microgram of RNA was used for the reverse transcription of first strand cDNA using the oligo dT primers. Five microliters of cDNA were used for the amplification of iNOS and GAPDH (glyceraldehyde 3-phosphate dehydrogenase) mRNA expression. The primers for rat iNOS are as follows, forward: 5′-ACTGCGTCGCTTCATTAGGT-3′ and reverse: 5′-TAGGCAAGCGCTTTACCACT-3′. The primers for rat glyceraldehydes 3-phosphate dehydrogenase are as follows, forward: 5′-ATGGCACAGTCAAGGCTGAGA-3′ reverse: 5′-AGACGCCAGTAGACTCCACGAC-3′. The amplicons were electrophoresed on a 3% agarose gel and band intensities were measured using a spectrophotometer (Thermo Fisher Scientific, Waltham, MA, USA) and normalized against GAPDH.
Figure 3 Inhibitory effects of compound 2i and 2m on LPS-induced iNOS mRNA expression. Cells (5 × 10^5 cells/well) were pretreated with the indicated concentrations of tested compounds for 2 h before incubation with 0.1 μg/mL LPS for 9 h. Total RNA was prepared for RT-PCR analysis of iNOS mRNA expression in LPS-stimulated RAW 264.7 cells. GAPDH were used as internal controls for the RT-PCR assays3.4. Inhibition of LPS-inducible COX-2 expression.

COX-2 protein expression = assay: LPS-inducible COX-2 protein expression in RAW 264.7 cells (western blot); format: cell-based, murine; details: pretreated 2 h, LPS 0.1 μg/mL 24 h
Description: (§1) The effects of compounds 2i and 2m on iNOS and COX-2 protein expression in LPS stimulated Raw 264.7 cell were assessed by western blot. Briefly, Raw 264.7 cells were pretreated with tested compound for 2 h before stimulation in the presence or absence of LPS (0.1 μg/mL). Cells were harvested and lysed with RIPA lysis buffer (50 mM Tris–Cl, pH 8.0, 150 mM NaCl, 0.1% SDS, 0.5% NP-40, 1% sodiumdeoxycholate, 1 mM phenylmethyl-sulfonylfluoride, 1 mM EDTA, no added proteinase) at 24 h after treatment. The total protein concentration in the cell lysates was measured according to the method described by Bradford. Equal amounts (15 μg) of protein were loaded and separated by using 8% SDS–PAGE and analyzed by western blot (ECL Amersham, Bensheim, Germany). The relative expression of proteins was quantified densitometrically using the software LabWorks 4.5 and was normalized againstβ-actin.
Figure 4 Inhibition of COX-2 expression by compound 2i and 2m in LPS-stimulated RAW 264.7 cells. Cells (5 × 10^5 cells/well) were pretreated with the indicated concentrations of tested compounds for 2 h before incubation with 0.1 μg/mL LPS for 24 h. Cell lysates were then prepared and western blots were performed using an antibody specific for murine COX-2.

[1] = system: LPS-stimulated NO production in RAW 264.7 cells; assay: Inhibition of LPS-induced NO production (nitrite accumulation, Griess reaction) in RAW 264.7 cells; format: cell-based; details: Mus musculus; for inhibition at 10 µM: RAW264.7, compound 10 μM, read-out: Percent Inhibition of NO Production at 10 μM
Description: Treatment of Raw 264.7 cells with LPS (0.1 μg/mL) for 24 h induced NO production which were assessed by measuring the accumulation of nitrite, a stable metabolite of NO, in the media based on Griess reaction. […] However, compound 2a was also highly cytotoxic, in which the survival rate of RAW 264.7 cells was only 9% at a drug concentration of 10 μM. […] The position of substitution play an important role in which substitution at para-position is usually more favorable than its ortho- or meta- counterpart in the inhibitory activity on the LPS-induced NO production. […] Various substituted groups have been introduced on the para-position of the phenyl ring.
Raw 264.7 cells, purchased from Bioresource Collection and Research Center, Taiwan, were cultured in DMEM, supplemented with 5% fetal bovine serum, 100 units/mL of penicillin, 100 μg/mL of streptomycin, 2 mM L-glutamine, and 1 mM non-essential amino acids in a 10-cm plate at a density of 1 × 10^6 cells/mL, at 37 °C in a humidified atmosphere containing 5% CO2.
Nitrite was measured by adding 100 μL of the Griess reagent (1% sulfanilamide and 0.1% N-(1-naphthyl)ethylenediamine dihydrochloride in 5% phosphoric acid) to 100 μL of medium for 5 min. The optical density at 550 nm (OD550) was measured with a microplate reader. Concentrations were calculated by comparison with the OD550 of a standard solution of sodium nitrite prepared in culture medium.

[2] = NO-scavenging activity (sodium nitroprusside, nitrite by Griess reaction); details: SNP 2.5 mM, compound 10 μM, light, room temperature, 60 min
Description: NO-scavenging effects of pyrazolo[4,3-c]quinolines 2i and 2m were measured according to the reported method. Sodium nitroprusside (SNP) (2.5 mM) was incubated alone or in combination with tested compound (10 μM) or 1400W(10 μM) in light at room temperature for 60 min.
To understand the inhibitory effects of compounds 2i and 2m on NO production, sodium nitroprusside (SNP) was freshly prepared at […] in PBS was incubated alone or in combination with 10 µM of the different compounds. SNP is an inorganic complex where NO is found as NO^+ and light irradiation is necessary for the release of NO. Therefore, incubation mixtures were incubated in light at room temperature, and nitrite levels were determined after 60 min by Griess reaction.
Figure 1 NO-scavenging effects of 1400W, compounds 2i and 2m. SNP solution (2.5 mM) in PBS was incubated alone or with tested compound (10 μM) or 1400W (10 μM) in the presence of light at room temperature for 60 min.

iNOS protein expression = assay: LPS-induced iNOS protein expression in RAW 264.7 cells (western blot); format: cell-based, murine; details: pretreated 2 h, LPS 0.1 μg/mL 24 h
Description: as §1
Figure 2 Inhibition of iNOS expression by 2i and 2m in LPS-stimulated RAW 264.7 cells. Cells (5 × 10^5 cells/well) were pretreated with the indicated concentrations of tested compounds for 2 h before incubation with 0.1 μg/mL LPS for 24 h. Cell lysates were then prepared and western blots were performed using an antibody specific for murine iNOS.

[3] = RAW264.7, 24 h, RAW 264.7 cells, LPS 0.1 μg/mL 24 h, means ± S.D., read-out: IC50 (inhibition of LPS-induced NO production)
[4] = RAW264.7, training dataset, negative logarithm of IC50 values, read-out: Observed pIC50 (converted)
[5] = RAW 264.7 cells, LPS 0.1 μg/mL 24 h, means ± S.D.

Structure (SMILES) | Cell Survival Rate at 10 μM (RAW 264.7 cells) [%] | Inhibition of LPS-stimulated iNOS mRNA expression (iNOS mRNA expression) | Inhibition of LPS-induced COX-2 protein expression (COX-2 protein expression) | IC50 [1, 3] [µM] | IC50 [1, 4] [µM] | inhibition at 10 µM [1, 5] [%] | NO-scavenging effect (levels of nitrite from SNP) [2] | Inhibition of LPS-induced iNOS protein expression (iNOS protein expression)
Nc1n[nH]c2c1c(Nc1ccc(O)cc1)nc1ccccc12 [Compound 2i, 3-amino-4-(4-hydroxyphenylamino)-1H-pyrazolo[4,3-c]-quinoline] | 87.84 ± 0.15 | inhibited the LPS-stimulated iNOS mRNA production in a dose-dependent manner | effectively suppressed the induction of COX-2 protein expression by LPS | 0.19 ± 0.05 | 0.19 | 102 ± 2.63 | did not affect the levels of nitrite | more potent inhibitory activities than 2m
Nc1n[nH]c2c1c(Nc1ccc(C(=O)O)cc1)nc1ccccc12 [Compound 2m, 4-(3-amino-1H-pyrazolo[4,3-c]quinolin-4-ylamino)benzoic acid] | 85.42 ± 0.77 | inhibited the LPS-stimulated iNOS mRNA production in a dose-dependent manner | effectively suppressed the induction of COX-2 protein expression by LPS | 0.22 ± 0.07 | 0.25 | 87.7 ± 9.93 | did not affect the levels of nitrite | –

From publication PMC6102577, “Discovery of Pyrazolo[4,3-c]quinolines Derivatives as Potential Anti-Inflammatory Agents through Inhibiting of NO Production” (Molecules : A Journal of Synthetic Chemistry and Natural …, 2018)
